# Test results as given in US7179823B1, “5-membered n-heterocyclic compounds with hypoglycemic and hypolipidemic activity” (Takeda Pharmaceutical Company Limited, priority 1999, dated 2007).
row,melting point [°C],Structure (SMILES)
1,147 to 148,"O=C(O)CCc1cn(Cc2ccc(OCc3ccc4ccccc4n3)cc2)nc1-c1ccccc1 [Example 285, 3-[3-phenyl-1-[4-(2-quinolylmethoxy)benzyl]-1H-pyrazol-4-yl]propionic acid]"
2,155 to 156,"O=C(O)CCc1cn(Cc2ccc(OCCn3ncc4ccccc4c3=O)cc2)nc1-c1ccccc1 [Example 286, 3-[1-[4-[2-[1-oxophthalazin-2(1H)-yl]ethoxy]benzyl]-3-phenyl-1H-pyrazol-4-yl]propionic acid]"
3,155 to 156,"O=C(O)CCc1cn(Cc2ccc(OCc3ccc(-c4ccccc4)nc3)cc2)nc1-c1ccccc1 [Example 288, 3-[3-phenyl-1-[4-(6-phenyl-3-pyridylmethoxy)benzyl]-1H-pyrazol-4-yl]propionic acid]"
4,161 to 162,"O=C(O)CCc1cn(Cc2ccc(OCc3cncc(-c4ccccc4)c3)cc2)nc1-c1ccccc1 [Example 290, 3-[3-phenyl-1-[4-(5-phenyl-3-pyridylmethoxy)benzyl]-1H-pyrazol-4-yl]propionic acid]"
5,225 to 226,"Cn1c(COc2ccc(Cn3cc(CCC(=O)O)c(-c4ccccc4)n3)cc2)nc2ccccc21 [Example 292, 3-[1-[4-(1-methyl-1H-benzimidazol-2-ylmethoxy)benzyl]-3-phenyl-1H-pyrazol-4-yl]propionic acid]"
6,178 to 179,"O=C(O)CCc1cn(Cc2ccc(OCc3ccc4ccccc4n3)cc2)nc1-c1ccc(F)cc1 [Example 294, 3-[3-(4-fluorophenyl)-1-[4-(2-quinolylmethoxy)benzyl]-1H-pyrazol-4-yl]propionic acid]"
7,162 to 163,"O=C(O)CCc1cn(Cc2ccc(OCc3ccc(-c4ccccc4)cn3)cc2)nc1-c1ccc(F)cc1 [Example 296, 3-[3-(4-fluorophenyl)-1-[4-(5-phenyl-2-pyridylmethoxy)benzyl]-1H-pyrazol-4-yl]propionic acid]"
8,166 to 167,"O=C(O)CCc1cn(Cc2ccc(OCc3ccc4ccccc4n3)nc2)nc1-c1ccccc1 [Example 298, 3-[3-phenyl-1-(6-(2-quinolylmethoxy)-3-pyridylmethyl]-1H-pyrazol-4-yl]propionic acid]"
9,88 to 89,"CCOC(=O)CCc1cn(Cc2cccnc2OCc2csc(-c3ccccc3)n2)nc1-c1ccccc1 [Example 299, ethyl 3-[3-phenyl-1-[2-(2-phenyl-4-thiazolylmethoxy)-3-pyridylmethyl]-1H-pyrazol-4-yl]propionate]"
10,107 to 108,"O=C(O)CCc1cn(Cc2ccc(OCc3csc(-c4ccccc4)n3)nc2)nc1-c1ccccc1 [Example 300, 3-[3-phenyl-1-[6-(2-phenyl-4-thiazolylmethoxy)-3-pyridylmethyl]-1H-pyrazol-4-yl]propionic acid]"
11,149 to 150,"O=C(O)CCc1cn(Cc2ccc(OCc3ccc(-c4ccccc4)cn3)cc2)nc1-c1ccccc1 [Example 302, 3-[3-phenyl-1-[4-(5-phenyl-2-pyridylmethoxy)benzyl]-1H-pyrazol-4-yl]propionic acid]"
12,132 to 133,"O=C(O)CCc1cn(Cc2ccc(OCc3csc(-c4ccccc4)n3)cc2)nc1-c1ccccc1 [Example 304, 3-[3-phenyl-1-[4-(2-phenyl-4-thiazolylmethoxy)benzyl]-1H-pyrazol-4-yl]propionic acid]"
13,175 to 176,"Cc1oc(-c2ccccc2)nc1COc1ccc(Cn2cc(CCC(=O)O)c(-c3ccccc3)n2)nc1 [Example 306, 3-[1-[5-(5-methyl-2-phenyl-4-oxazolylmethoxy)-2-pyridylmethyl]-3-phenyl-1H-pyrazol-4-yl]propionic acid]"
14,144 to 145,"Cc1oc(-c2ccccc2)nc1COc1ccc(Cn2cc(CC(=O)O)c(-c3ccccc3)n2)cn1 [Example 308, [1-[6-(5-methyl-2-phenyl-4-oxazolylmethoxy)-3-pyridylmethyl]-3-phenyl-1H-pyrazol-4-yl]acetic acid]"
15,75 to 76,"CCOC(=O)Cc1cn(Cc2ccc(OCc3csc(-c4ccccc4)n3)nc2)nc1-c1ccccc1 [Example 309, ethyl(3-phenyl-1-[6-(2-phenyl-4-thiazolylmethoxy)-3-pyridylmethyl]-1H-pyrazol-4-yl]acetate]"
16,118 to 119,"O=C(O)Cc1cn(Cc2ccc(OCc3csc(-c4ccccc4)n3)nc2)nc1-c1ccccc1 [Example 310, [3-phenyl-1-[6-(2-phenyl-4-thiazolylmethoxy)-3-pyridylmethyl]-1H-pyrazol-4-yl]acetic acid]"
17,140 to 141,"Cc1sc(-c2ccccc2)nc1COc1ccc(Cn2cc(CC(=O)O)c(-c3ccccc3)n2)cn1 [Example 312, [1-[6-(5-methyl-2-phenyl-4-thiazolylmethoxy)-3-pyridylmethyl]-3-phenyl-1H-pyrazol-4-yl]acetic acid]"

row,melting point [°C],Structure (SMILES)
1,148 to 149,"Cc1oc(-c2ccccc2)nc1CCOc1ccc(Cn2cc(CC(=O)O)c(-c3ccccc3)n2)cn1 [Example 314, [1-[6-[2-(5-methyl-2-phenyl-4-oxazolyl)ethoxy]-3-pyridylmethyl]-3-phenyl-1H-pyrazol-4-yl]acetic acid]"
2,135 to 136,"Cc1oc(-c2ccco2)nc1COc1ccc(Cn2cc(CC(=O)O)c(-c3ccccc3)n2)cn1 [Example 316, [1-[6-[2-(2-furyl)-5-methyl-4-oxazolylmethoxy]-3-pyridylmethyl]-3-phenyl-1H-pyrazol-4-yl]acetic acid]"
3,194 to 195,"O=C(O)Cc1cn(Cc2ccc(OCc3ccccc3)cc2)nc1-c1ccc(F)cc1 [Example 317, [1-(4-benzyloxybenzyl)-3-(4-fluorophenyl)-1H-pyrazol-4-yl]acetic acid]"
4,58 to 59,"COC(=O)Cc1cn(Cc2ccc(OCc3ccccc3)cc2)nc1-c1ccc(F)cc1 [Example 318, methyl [1-(4-benzyloxybenzyl)-3-(4-fluorophenyl)-1H-pyrazol-4-yl]acetate]"
5,141 to 142,"O=C(O)c1cn(Cc2ccc(Oc3ccccc3)cc2)nc1OCc1ccc(Oc2ccccc2)cc1 [Example 320, 1-(4-phenoxybenzyl)-3-(4-phenoxybenzyloxy)-1H-pyrazole-4-carboxylic acid]"
6,98 to 99,"CCOC(=O)c1cn(Cc2ccc(Oc3ccccc3)cc2)nc1OCc1ccc(OCc2nc(-c3ccco3)oc2C)c(OC)c1 [Example 321, ethyl 3-[4-[2-(2-furyl)-5-methyl-4-oxazolylmethoxy]-3-methoxybenzyloxy]-1-(4-phenoxybenzyl)-1H-pyrazole-4-carboxylate]"
7,153 to 154,"COc1cc(COc2nn(Cc3ccc(Oc4ccccc4)cc3)cc2C(=O)O)ccc1OCc1nc(-c2ccco2)oc1C [Example 322, 3-[4-[2-(2-furyl)-5-methyl-4-oxazolylmethoxy]-3-methoxybenzyloxy]-1-(4-phenoxybenzyl)-1H-pyrazole-4-carboxylic acid]"
8,105 to 106,"COc1cc(COc2nn(Cc3ccc(Oc4ccccc4)cc3)cc2C(N)=O)ccc1OCc1nc(-c2ccco2)oc1C [Example 323, 3-[4-[2-(2-furyl)-5-methyl-4-oxazolylmethoxy]-3-methoxybenzyloxy]-1-(4-phenoxybenzyl)-1H-pyrazole-4-carbamide]"
9,127 to 128,"CCOC(=O)c1cn(Cc2ccc(Oc3ccccc3)cc2)nc1OCc1ccc(OCc2nc(-c3ccccc3)oc2C)c(OC)c1 [Example 324, ethyl 3-[3-methoxy-4-(5-methyl-2-phenyl-4-oxazolylmethoxy)benzyloxy]-1-(4-phenoxybenzyl)-1H-pyrazole-4-carboxylate]"
10,144 to 145,"Cc1oc(-c2ccco2)nc1COc1ccc(COc2nn(Cc3ccc(OCc4nc(-c5ccco5)oc4C)cc3)cc2C(=O)O)cc1 [Example 326, 1-[4-[2-(2-furyl)-5-methyl-4-oxazolylmethoxy]benzyl]-3-[4-[2-(2-furyl)-5-methyl-4-oxazolylmethoxy]benzyloxy]-1H-pyrazole-4-carboxylic acid]"
11,96 to 97,"CCOC(=O)c1cn(Cc2ccc(Oc3ccccc3)cc2)nc1OCc1nc(-c2ccccc2)oc1C [Example 329, ethyl 3-(5-methyl-2-phenyl-4-oxazolylmethoxy)-1-(4-phenoxybenzyl)-1H-pyrazole-4-carboxylate]"
12,222 to 223,"Cc1oc(-c2ccccc2)nc1COc1nn(Cc2ccc(Oc3ccccc3)cc2)cc1C(=O)O [Example 330, 3-(5-methyl-2-phenyl-4-oxazolylmethoxy)-1-(4-phenoxybenzyl)-1H-pyrazole-4-carboxylic acid]"
13,158 to 159,"Cc1oc(-c2ccccc2)nc1COc1nn(Cc2ccc(Oc3ccccc3)cc2)cc1C(N)=O [Example 331, 3-(5-methyl-2-phenyl-4-oxazolylmethoxy)-1-(4-phenoxybenzyl)-1H-pyrazole-4-carbamide]"
14,93 to 94,"CCOC(=O)/C=C/c1cn(Cc2ccc(Oc3ccccc3)cc2)nc1OCc1nc(-c2ccccc2)oc1C [Example 332, ethyl(E)-3-[3-(5-methyl-2-phenyl-4-oxazolylmethoxy)-1-(4-phenoxybenzyl)-1H-pyrazol-4-yl]propenoate]"
15,210 to 211,"Cc1oc(-c2ccccc2)nc1COc1nn(Cc2ccc(Oc3ccccc3)cc2)cc1/C=C/C(=O)O [Example 333, (E)-3-[3-(5-methyl-2-phenyl-4-oxazolylmethoxy)-1-(4-phenoxybenzyl)-1H-pyrazol-4-yl]propenoic acid]"
16,120 to 121,"Cc1oc(-c2ccccc2)nc1COc1nn(Cc2ccc(Oc3ccccc3)cc2)cc1CCC(=O)O [Example 335, 3-[3-(5-methyl-2-phenyl-4-oxazolylmethoxy)-1-(4-phenoxybenzyl)-1H-pyrazol-4-yl]propionic acid]"
